Assay results from patent US11324786B2, “Lactic acid bacteria and use thereof” (priority 2017, dated 2022).

How the values were obtained:
Type in all cases: in vivo, mouse
TNF-α = experiment: Colitis animal model: TNF-α in colon; details: colon tissue, TNBS colitis mice; oral once daily for 3 days; lactic acid bacteria 1×10^9 CFU
Experimental: (§1) 6 C57BL/6 mice (male, 21 to 23 g, 6 weeks old) formed one group which was adapted to a test room for 1 week. One group was used as a normal group, and the other group was treated with 2,4,6-trinitrobenzenesulfonic acid (TNBS) to induce colitis. Specifically, after test animals were anesthetized with ether, 0.1 ml of TNBS solution mixed with 50% ethanol was injected into the large intestine through the anus using a 1 ml syringe with a round tip, and the test animals were raised up vertically for 30 seconds to cause inflammation. Meanwhile, 0.1 ml of physiological saline was orally administered to the normal group. After the administration, the novel lactic acid bacterium Lactobacillus mucosae NK41, Bifidobacterium longum NK46 or a 1:1 mixture thereof was suspended in physiological saline which in turn was orally administered thereto in an amount of 1×10^9 CFU once daily for 3 days from a next day. The next day when the lactic acid bacteria administration was finished, the test animal was sacrificed, and a portion of the colon from a cecum to a site immediately before the anus was removed and then a length thereof was measured. […]
(§2) Western blotting methods were used to measure inflammatory response indicator materials, such as p-p65, p65, COX-2 and IL-17. […] Further, the expression level of cytokines thereof was measured using an ELISA kit.

IL-17 = experiment: Colitis animal model: IL-17 in colon; details: colon tissue, TNBS colitis mice; oral once daily for 3 days; lactic acid bacteria 1×10^9 CFU, sulfasalazine 50 mg/kg
Experimental: as §1, §2

colitis animal model = experiment: TNBS colitis animal model: weight change, colon length, toxicity; details: TNBS colitis mice; oral once daily for 3 days; lactic acid bacteria 1×10^9 CFU, sulfasalazine 50 mg/kg
Experimental: One group was used as a normal group, and the other group was treated with 2,4,6-trinitrobenzenesulfonic acid (TNBS) to induce colitis. Specifically, after test animals were anesthetized with ether, 0.1 ml of TNBS solution mixed with 50% ethanol was injected into the large intestine through the anus using a 1 ml syringe with a round tip, and the test animals were raised up vertically for 30 seconds to cause inflammation. Meanwhile, 0.1 ml of physiological saline was orally administered to the normal group. […] The next day when the lactic acid bacteria administration was finished, the test animal was sacrificed, and a portion of the colon from a cecum to a site immediately before the anus was removed and then a length thereof was measured. Then, various following indicators were identified based on the length. On the other hand, 1% dextrose solution as a suspension of lactic acid bacteria instead of the novel lactic acid bacteria was administered orally to the test animals in the normal group. Further, a test animal of a positive control group was orally treated with a colitis treatment drug sulfasalazine in an amount of 50 mg/kg instead of the novel lactic acid bacteria.

myeloperoxidase (MPO) = experiment: Colitis animal model: myeloperoxidase activity in colon tissue; details: TNBS colitis mice, oral once daily for 3 days, lactic acid bacteria 1×10^9 CFU, sulfasalazine 50 mg/kg
Experimental: as §1, with “After the administration, the novel lactic acid bacterium Lactobacillus mucosae NK41, Bifidobacterium longum NK46 or a 1:1 mixture thereof was suspended in physiological saline which in turn was orally administered thereto in an amount of 1×10^9 CFU once daily for 3 days from a next day.” left out
200 μl of 10 mM potassium phosphate buffer (pH 7.0) containing 0.5% hexadecyl trimethyl ammonium bromide was added to 100 mg of colon tissue, and was homogenized. […] 50 μl of the supernatant was added to 0.95 ml of a reaction solution (containing 1.6 mM tetramethyl benzidine and 0.1 mM H2O2) and the absorbance was measured over time at 650 nm while reacting at 37° C. The activity of myeloperoxidase (MPO) was calculated while 1 μmol/ml of H2O2 generated as a reactant was defined as one unit.

COX-2 = experiment: Colitis animal model: COX-2 in colon; details: colon tissue, TNBS colitis mice; oral once daily for 3 days; lactic acid bacteria 1×10^9 CFU, sulfasalazine 50 mg/kg
Experimental: as §1, §2

O=C(O)c1cc(/N=N/c2ccc(S(=O)(=O)Nc3ccccn3)cc2)ccc1O [Positive group, sulfasalazine]
TNF-α (TNF-α): 75 pg/mg | IL-17 (IL-17): 41 pg/mg | Colon length (colitis animal model): 4.7 cm | Weight change (colitis animal model): -0.54 g | MPO activity (myeloperoxidase (MPO)): 0.98 μU/mg | COX-2 activity (COX-2): 0.41
